Assay results as given in ChEMBL document CHEMBL2074250, “Digoxin up-regulates MDR1 in human colon carcinoma Caco-2 cells” (Biochem Biophys Res Commun, 2002).

Target: ATP-dependent translocase ABCB1 (Homo sapiens, UniProt P08183)
Experiment: TP_TRANSPORTER: RT-PCR in Caco-2 cells
Format: functional, cell-based

Chain of ATP-dependent translocase ABCB1 (P08183 whole entry): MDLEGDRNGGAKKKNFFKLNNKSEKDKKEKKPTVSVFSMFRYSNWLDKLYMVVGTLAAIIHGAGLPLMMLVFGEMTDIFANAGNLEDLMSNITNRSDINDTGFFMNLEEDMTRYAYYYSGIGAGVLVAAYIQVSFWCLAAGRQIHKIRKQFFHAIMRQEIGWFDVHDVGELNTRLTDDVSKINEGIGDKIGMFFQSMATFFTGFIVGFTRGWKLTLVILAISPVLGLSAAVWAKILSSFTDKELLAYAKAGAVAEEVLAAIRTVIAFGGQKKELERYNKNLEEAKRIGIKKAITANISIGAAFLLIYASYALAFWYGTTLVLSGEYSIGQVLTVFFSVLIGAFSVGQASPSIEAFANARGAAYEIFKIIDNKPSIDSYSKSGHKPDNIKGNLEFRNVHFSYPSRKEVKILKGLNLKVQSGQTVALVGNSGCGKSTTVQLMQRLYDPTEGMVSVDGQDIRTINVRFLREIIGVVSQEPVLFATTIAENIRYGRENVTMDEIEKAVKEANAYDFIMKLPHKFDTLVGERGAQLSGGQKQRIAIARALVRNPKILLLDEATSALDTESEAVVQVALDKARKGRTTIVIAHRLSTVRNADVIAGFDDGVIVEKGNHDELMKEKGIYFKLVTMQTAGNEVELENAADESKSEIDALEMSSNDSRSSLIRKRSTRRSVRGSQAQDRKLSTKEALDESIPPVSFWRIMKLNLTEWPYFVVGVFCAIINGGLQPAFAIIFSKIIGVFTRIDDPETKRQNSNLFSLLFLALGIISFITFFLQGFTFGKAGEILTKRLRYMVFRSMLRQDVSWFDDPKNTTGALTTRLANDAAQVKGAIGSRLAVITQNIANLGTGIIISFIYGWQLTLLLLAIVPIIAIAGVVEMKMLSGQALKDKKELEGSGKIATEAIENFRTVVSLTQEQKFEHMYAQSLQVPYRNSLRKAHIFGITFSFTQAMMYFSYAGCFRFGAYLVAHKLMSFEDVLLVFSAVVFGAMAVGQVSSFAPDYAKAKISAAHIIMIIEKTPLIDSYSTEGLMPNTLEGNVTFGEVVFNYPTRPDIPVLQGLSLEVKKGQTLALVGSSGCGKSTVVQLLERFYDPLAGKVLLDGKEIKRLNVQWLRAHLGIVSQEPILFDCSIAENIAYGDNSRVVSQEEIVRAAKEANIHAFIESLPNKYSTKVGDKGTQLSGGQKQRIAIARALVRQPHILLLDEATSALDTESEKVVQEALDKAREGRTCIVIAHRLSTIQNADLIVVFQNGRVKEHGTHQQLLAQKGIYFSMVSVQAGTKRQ

Activity: inducer [+]
SMILES: C[C@H]1O[C@@H](O[C@H]2[C@@H](O)C[C@H](O[C@H]3[C@@H](O)C[C@H](O[C@H]4CC[C@@]5(C)[C@H](CC[C@@H]6[C@@H]5C[C@@H](O)[C@]5(C)[C@@H](C7=CC(=O)OC7)CC[C@]65O)C4)O[C@@H]3C)O[C@@H]2C)C[C@H](O)[C@@H]1O [DIGOXIN]
